Experiment [1] has as its system peptide-pulsed TISI cells. As to the kind of experiment: IFN-gamma ELISPOT assay on CTLs induced with peptide. It is filed as cell-based, human. The note with it: CTLs from HLA-A*2402 positive donor after 3rd peptide stimulation, versus target cells not pulsed with peptide. An excerpt: Monocyte-derived dendritic cells (DCs) were used as antigen-presenting cells to induce cytotoxic T lymphocyte (CTL) responses against peptides presented on human leukocyte antigen (HLA). DCs were generated in vitro as described elsewhere (Nakahara S et al., Cancer Res 2003, 63(14): 4112-8). Specifically, peripheral blood mononuclear cells isolated from a normal volunteer (HLA-A*2402 positive) by Ficoll-Plaque (Pharmacia) solution were separated by adherence to a plastic tissue culture dish (Becton Dickinson) so as to enrich them as the monocyte fraction. The monocyte-enriched population was cultured in the presence of 1000 U/ml of granulocyte-macrophage colony-stimulating factor (R&D System) and 1000 U/ml of interleukin (IL)-4 (R&D System) in AIM-V Medium (Invitrogen) containing 2% heat-inactivated autologous serum (AS). After 7 days of culture, the cytokine-induced DCs were pulsed with 20 micro-g/ml of each of the synthesized peptides in the presence of 3 micro-g/ml of beta 2-microglobulin for 3 hr at 37 degrees C. in AIM-V Medium. The generated cells appeared to express DC-associated molecules, such as CD80, CD83, CD86 and HLA class II, on their cell surfaces (data not shown). These peptide-pulsed DCs were then inactivated by X-irradiated (20 Gy) and mixed at a 1:20 ratio with autologous CD8+ T cells, obtained by positive selection with CD8 Positive Isolation Kit (Dynal). These cultures were set up in 48-well plates (Corning); each well contained 1.5×10^4 peptide-pulsed DCs, 3×10^5 CD8+ T cells and 10 ng/ml of IL-7 (R&D System) in 0.5 ml of AIM-V/2% AS medium. Three days later, these cultures were supplemented with IL-2 (CHIRON) to a final concentration of 20 IU/ml. On day 7 and 14, the T cells were further stimulated with the autologous peptide-pulsed DCs. The DCs were prepared each time by the same way described above. CTL was tested against peptide-pulsed TISI cells after the 3rd round of peptide stimulation on day 21 (Tanaka H et al., Br J Cancer 2001, 84(1): 94-9; Umano Y et al., Br J Cancer 2001, 84(8): 1052-7; Uchida N et al., Clin Cancer Res 2004, 10(24): 8577-86; Suda T et al., Cancer Sci 2006, 97(5): 411-9; Watanabe T et al., Cancer Sci 2005, 96(8): 498-506).
(§1) Specifically, peptide-pulsed TISI (1×10^4/well) was prepared as stimulator cells. Cultured cells in 48 wells were used as responder cells. IFN-gamma ELISPOT assay and IFN-gamma ELISA assay were performed under manufacture procedure.

Experiment [2] relates to peptide-pulsed TISI cells. Put plainly: IFN-gamma ELISA assay of CTL lines. It is filed as cell-based, human. The note with it: target cells pulsed with corresponding peptide versus without peptide pulse. The procedure: CTLs were expanded in culture using the method similar to the one described by Riddell et al. (Walter E A et al., N Engl J Med 1995, 333(16): 1038-44; Riddell S R et al., Nat Med 1996, 2(2): 216-23). A total of 5×10^4 CTLs were suspended in 25 ml of AIM-V/5% AS medium with 2 kinds of human B-lymphoblastoid cell lines, inactivated by Mitomycin C, in the presence of 40 ng/ml of anti-CD3 monoclonal antibody (Pharmingen). One day after initiating the cultures, 120 IU/ml of IL-2 were added to the cultures. The cultures were fed with fresh AIM-V/5% AS medium containing 30 IU/ml of IL-2 on days 5, 8 and 11 (Tanaka H et al., Br J Cancer 2001, 84(1): 94-9; Umano Y et al., Br J Cancer 2001, 84(8): 1052-7; Uchida N et al., Clin Cancer Res 2004, 10(24): 8577-86; Suda T et al., Cancer Sci 2006, 97(5): 411-9; Watanabe T et al., Cancer Sci 2005, 96(8): 498-506).
as §1
(An ELISA detects its analyte on a solid surface through an enzyme-linked reagent.)

The subject of experiment [3] is peptide-pulsed TISI cells. As to the kind of experiment: IFN-gamma ELISA assay of CTL clone established by limiting dilution. In kind it is cell-based, human. The conditions noted are these: target cells pulsed with peptide versus not pulsed; listed as WDHD1-A24-9-844. The procedure:
The dilutions were made to have 0.3, 1, and 3 CTLs/well in 96 round-bottomed micro titer plate (Nalge Nunc International). CTLs were cultured with 1×10^4 cells/well of 2 kinds of human B-lymphoblastoid cell lines, 30 ng/ml of anti-CD3 antibody, and 125 U/ml of IL-2 in a total of 150 micro-l/well of AIM-V Medium containing 5% AS. 50 micro-l/well of IL-2 were added to the medium 10 days later so to reach a final concentration of 125 U/ml IL-2. CTL activity was tested on the 14th day, and CTL clones were expanded using the same method as described above (Uchida N et al., Clin Cancer Res 2004, 10(24): 8577-86; Suda T et al., Cancer Sci 2006, 97(5): 411-9; Watanabe T et al., Cancer Sci 2005, 96(8): 498-506).
as §1

The subject of experiment [4] is COS7 cells transfected with both WDHD1 and HLA-A*2402. Put plainly: Specific CTL activity against target cells expressing WDHD1 and HLA-A*2402. The note with it: COS7 expressing both WDHD1 and HLA-A*2402; listed as WDHD1-A24-9-844. It is filed as cell-based, African green monkey. The source says: (§2) The cDNA encoding an open reading frame of target genes or HLA-A*2402 was amplified by PCR. The PCR-amplified product was cloned into the expression vector. The plasmids were transfected into COS7, which is the target genes and HLA-A*2402-null cell line, using lipofectamine 2000 (Invitrogen) according to the manufacturer's recommended procedures. After 2 days from transfection, the transfected cells were harvested with versene (Invitrogen) and used as the target cells (5×10^4 cells/well) for CTL activity assay.
(§3) The established CTL lines and clone raised against each peptide were examined for the ability to recognize target cells that express WDHD1 and HLA-A*2402 molecule. […] COS7 cells transfected with either full length of WDHD1 or HLA-A* 2402 were prepared as the controls.

Experiment [5] deals with COS7 cells transfected with either full length of WDHD1 or HLA-A*2402. Put plainly: Specific CTL activity against control target cells. In kind it is cell-based, African green monkey. The note with it: COS7 expressing either HLA-A*2402 or WDHD1 only.
Excerpt: as §2, §3

The source of these data is patent publication US9056890B2, “WDHD1 peptides and vaccines including the same” (OncoTherapy Science Inc., priority 2010, dated 2015).

“Also recorded” adds a separate entry of the source.

RSVIFHNHL [SEQ ID NO: 6]: in experiment [1], the “peptide specific CTL activity, IFN-gamma production” value (“peptide specific CTL activity” for short) is “potent IFN-gamma production”.
Take GYAICGLAW [SEQ ID NO: 14]: the “peptide specific CTL activity” value in experiment [1] is listed as “potent IFN-gamma production”.
Take SYLAWIGFSA [SEQ ID NO: 29]: in experiment [1], the “peptide specific CTL activity” value is given as “potent IFN-gamma production”. Also, the “IFN-gamma production of CTL lines” value in experiment [2] was “potent IFN-gamma production”.
For KYASRSRKL [SEQ ID NO: 1], the “peptide specific CTL activity” value in experiment [1] (listed as WDHD1-A24-9-798) is recorded as “not observed”.
For the sequence EQFWRSVIF [SEQ ID NO: 19], the “peptide specific CTL activity” value in experiment [1] was “potent IFN-gamma production”.
As to TWSPCGQYL [SEQ ID NO: 12], the “peptide specific CTL activity” value in experiment [1] is “potent IFN-gamma production”. Further, in experiment [2], the “IFN-gamma production of CTL lines” value was “potent IFN-gamma production”.
In the case of KQILHGDPL [SEQ ID NO: 8], the “peptide specific CTL activity” value in experiment [1] was “potent IFN-gamma production”.
For the sequence GYSNTATEW [SEQ ID NO: 13], the “peptide specific CTL activity” value in experiment [1] is on record as “potent IFN-gamma production”. Besides, the “IFN-gamma production of CTL lines” value in experiment [2] is listed as “potent IFN-gamma production”. Moreover, the “IFN-gamma production of CTL clone” value in experiment [3] is recorded as “potent IFN-gamma production”. Also, the “specific CTL activity of CTL clone” value in experiment [4] is “potent CTL activity; also recorded: specific CTL activity”. The “specific CTL activity of CTL clone against controls” value in experiment [5] is given as “no significant specific CTL activity”.
